Earlier results, collected in US4833125A, “Method of increasing bone mass” (The General Hospital Corporation, priority 1987, dated 1989).

Test system: osteoporosis in humans
Settings: hPTH (1-34) alone, Reeve et al. 1980

Substance: hPTH (1-34): fragment of human parathyroid hormone, first thirty-four amino acid residues, given alone in cited trial (SVSEIQLMHNLGKHLNSMERVEWLRKKLQDVHNF; Parathyroid hormone; UniProt P01270 32-65, looked up, fragment)
- axial trabecular bone: considerable increase
- calcium retention, and hence total bone mass: improved in only about half of these patients
